Measurements published in patent US11033539B2, “Compounds of formulas (VII), (VIII), (IX), (XI), (XII), (XIII), and (XIV) as muscarinic receptor 4(M4) antagonists for treating neurological diseases” (Neurocrine Biosciences, Inc., priority 2015, dated 2021).
Where two headings read alike, the source gives them in different places.

Experiments:
human M4 receptor = human M4 receptor (Homo sapiens (Human), UniProt P08173); experiment: Radioligand (tritiated N-methylscopolamine) binding assay, M4; conditions: Ki against the M4 receptor; membranes from CHO cells expressing human M4; tritiated N-methylscopolamine 1.5 nM; read-out: Ki
human M4 receptor, sequence (P08173 whole entry): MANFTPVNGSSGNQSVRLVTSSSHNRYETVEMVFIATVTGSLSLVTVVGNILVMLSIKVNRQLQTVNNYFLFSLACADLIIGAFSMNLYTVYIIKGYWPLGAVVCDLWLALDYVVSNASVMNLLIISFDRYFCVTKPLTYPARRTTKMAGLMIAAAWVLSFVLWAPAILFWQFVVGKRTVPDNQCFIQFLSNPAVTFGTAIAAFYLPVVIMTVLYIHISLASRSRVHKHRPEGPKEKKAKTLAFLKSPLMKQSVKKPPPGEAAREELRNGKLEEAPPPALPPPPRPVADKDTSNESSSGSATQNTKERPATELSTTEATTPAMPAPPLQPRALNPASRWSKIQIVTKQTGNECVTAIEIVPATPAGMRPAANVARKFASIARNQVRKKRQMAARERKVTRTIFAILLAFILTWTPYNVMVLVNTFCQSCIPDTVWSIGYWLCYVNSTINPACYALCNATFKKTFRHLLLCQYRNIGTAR
Outline: (§1)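 CHO membranes; 1.5 nM radioligand; 12-point compound dose-response, 10 μM to […]; HEPES/NaCl/MgCl2/EDTA buffer pH 7.4; 90 min, 37 °C. PEI-treated glass fiber filtration, radioactivity counting. Ki from inhibition of binding.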

human M1 receptor = human M1 receptor (Homo sapiens (Human), UniProt P11229); experiment: Radioligand (tritiated N-methylscopolamine) binding assay, M1
human M1 receptor, sequence (P11229 whole entry): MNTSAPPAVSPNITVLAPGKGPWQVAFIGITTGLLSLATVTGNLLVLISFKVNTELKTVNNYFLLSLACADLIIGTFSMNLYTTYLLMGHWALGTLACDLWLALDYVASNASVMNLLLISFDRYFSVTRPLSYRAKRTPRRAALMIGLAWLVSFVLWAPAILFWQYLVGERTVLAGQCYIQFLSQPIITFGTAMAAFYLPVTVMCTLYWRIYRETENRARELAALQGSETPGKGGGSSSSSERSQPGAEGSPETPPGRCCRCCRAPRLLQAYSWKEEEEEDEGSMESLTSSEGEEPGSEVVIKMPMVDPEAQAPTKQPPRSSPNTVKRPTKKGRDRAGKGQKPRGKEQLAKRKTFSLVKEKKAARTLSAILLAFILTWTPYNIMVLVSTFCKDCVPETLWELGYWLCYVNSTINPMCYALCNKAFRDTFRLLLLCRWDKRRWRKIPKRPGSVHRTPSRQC
Outline: as §1

human M5 receptor = human M5 receptor (Homo sapiens (Human), UniProt P08912); experiment: Radioligand (tritiated N-methylscopolamine) binding assay, M5
human M5 receptor, sequence (P08912 whole entry): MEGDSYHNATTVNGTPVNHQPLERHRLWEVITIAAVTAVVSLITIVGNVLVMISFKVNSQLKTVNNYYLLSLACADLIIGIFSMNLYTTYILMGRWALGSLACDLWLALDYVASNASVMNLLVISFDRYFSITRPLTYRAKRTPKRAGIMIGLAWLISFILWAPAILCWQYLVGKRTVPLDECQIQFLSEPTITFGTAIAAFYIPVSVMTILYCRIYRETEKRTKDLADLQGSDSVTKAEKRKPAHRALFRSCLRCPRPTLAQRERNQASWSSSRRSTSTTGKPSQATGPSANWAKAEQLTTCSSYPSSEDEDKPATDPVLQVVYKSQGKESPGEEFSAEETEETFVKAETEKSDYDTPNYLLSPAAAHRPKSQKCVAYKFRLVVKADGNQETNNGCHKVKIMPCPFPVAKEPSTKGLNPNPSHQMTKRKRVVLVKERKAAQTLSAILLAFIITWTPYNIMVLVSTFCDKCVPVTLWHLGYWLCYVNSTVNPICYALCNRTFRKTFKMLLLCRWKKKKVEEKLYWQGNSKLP
Outline: as §1

human M3 receptor = human M3 receptor (Homo sapiens (Human), UniProt P20309); experiment: Radioligand (tritiated N-methylscopolamine) binding assay, M3; conditions: CHO cell membranes expressing human M3; 1.5 nM tritiated N-methylscopolamine; 90 min, 37° C.; read-out: Ki against M3 receptor (Table 21, M3)
human M3 receptor, sequence (P20309 whole entry): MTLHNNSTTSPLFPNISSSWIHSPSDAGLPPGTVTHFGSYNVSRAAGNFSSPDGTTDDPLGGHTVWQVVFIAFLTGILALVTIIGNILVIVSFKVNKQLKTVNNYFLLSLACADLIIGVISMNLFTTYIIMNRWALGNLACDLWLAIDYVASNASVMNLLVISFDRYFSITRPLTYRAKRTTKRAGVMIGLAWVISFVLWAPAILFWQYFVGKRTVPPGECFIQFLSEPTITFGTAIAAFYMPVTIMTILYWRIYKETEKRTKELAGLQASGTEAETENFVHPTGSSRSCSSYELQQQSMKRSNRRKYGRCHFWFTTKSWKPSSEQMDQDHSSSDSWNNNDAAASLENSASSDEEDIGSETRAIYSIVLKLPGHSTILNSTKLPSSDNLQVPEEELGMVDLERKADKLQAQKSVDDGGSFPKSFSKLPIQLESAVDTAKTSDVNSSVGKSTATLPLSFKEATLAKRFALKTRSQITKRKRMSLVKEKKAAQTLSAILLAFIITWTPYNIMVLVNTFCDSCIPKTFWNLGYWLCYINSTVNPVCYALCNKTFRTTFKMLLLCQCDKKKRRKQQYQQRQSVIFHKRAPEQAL
Outline: as §1

human M2 receptor = human M2 receptor (Homo sapiens (Human), UniProt P08172); experiment: Radioligand (tritiated N-methylscopolamine) binding assay, M2
human M2 receptor, sequence (P08172 whole entry): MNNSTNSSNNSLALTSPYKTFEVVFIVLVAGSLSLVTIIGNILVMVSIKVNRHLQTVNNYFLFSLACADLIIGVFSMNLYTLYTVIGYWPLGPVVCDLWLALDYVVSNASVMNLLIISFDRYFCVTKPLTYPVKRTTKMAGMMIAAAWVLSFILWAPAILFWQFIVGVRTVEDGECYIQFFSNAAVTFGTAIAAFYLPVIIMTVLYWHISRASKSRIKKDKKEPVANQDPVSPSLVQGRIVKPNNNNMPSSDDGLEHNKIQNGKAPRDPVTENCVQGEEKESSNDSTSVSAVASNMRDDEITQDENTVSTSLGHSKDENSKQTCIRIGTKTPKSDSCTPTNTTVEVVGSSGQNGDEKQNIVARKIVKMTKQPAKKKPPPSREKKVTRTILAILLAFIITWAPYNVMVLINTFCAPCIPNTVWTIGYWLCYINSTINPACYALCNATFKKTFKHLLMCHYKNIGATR
Outline: as §1

[1] = CHO cell membranes expressing human M1, 1.5 nM tritiated N-methylscopolamine, 90 min, 37° C., read-out: Ki against M1 receptor (Table 21, M1)
[2] = CHO cell membranes expressing human M5, 1.5 nM tritiated N-methylscopolamine, 90 min, 37° C., read-out: Ki against M5 receptor (Table 21, M5)
[3] = CHO cell membranes expressing human M2, 1.5 nM tritiated N-methylscopolamine, 90 min, 37° C., read-out: Ki against M2 receptor (Table 21, M2)

| SMILES | Ki (human M4 receptor) [nM] | Ki (human M1 receptor; [1]) [nM] | Ki (human M5 receptor; [2]) [nM] | Ki (human M3 receptor) [nM] | Ki (human M2 receptor; [3]) [nM] | Ki (human M1 receptor) [nM] | Ki (human M5 receptor) [nM] | Ki (human M2 receptor) [nM] |
| --- | --- | --- | --- | --- | --- | --- | --- | --- |
| C[C@@H]1CN(c2ncc(C(F)(F)F)cc2F)CCN1C(=O)NCCC1CCN(Cc2ccccc2)CC1 [3-10, (2R)-N-[2-(1-benzylpiperidin-4-yl)ethyl]-4-[3-fluoro-5-(trifluoromethyl)pyridin-2-yl]-2-methylpiperazine-1-carboxamide] | < 10 | 100 to 1000 | > 1000 | 100 to 1000 | 10 to 100 |  |  |  |
| C[C@@H]1CN(c2cc(F)c(F)c(F)c2)CCN1C(=O)NCCC1CCN(Cc2ccccc2)CC1 [3-12, (2R)-N-[2-(1-benzylpiperidin-4-yl)ethyl]-2-methyl-4-(3,4,5-trifluorophenyl)piperazine-1-carboxamide] | < 10 | 100 to 1000 | > 1000 | > 1000 | 10 to 100 |  |  |  |
| C[C@@H]1CN(c2cc(F)c(F)c(Cl)c2)CCN1C(=O)NCCC1CCN(Cc2ccccc2)CC1 [4-52, (2R)-N-[2-(1-benzylpiperidin-4-yl)ethyl]-4-(3-chloro-4,5-difluorophenyl)-2-methylpiperazine-1-carboxamide] | < 10 | 100 to 1000 | > 1000 | 100 to 1000 | 10 to 100 |  |  |  |
| C[C@@H]1CN(c2cc(F)c(F)c(F)c2)CCN1C(=O)NC[C@@H](O)C1CCN(Cc2ccccc2)CC1 [3-22, (2R)-N-[(2S)-2-(1-benzylpiperidin-4-yl)-2-hydroxyethyl]-2-methyl-4-(3,4,5-trifluorophenyl)piperazine-1-carboxamide] | < 10 | > 1000 | > 1000 | > 1000 | 100 to 1000 |  |  |  |
| C[C@@H]1CN(c2ccc(C#N)c(C(F)(F)F)c2)CCN1C(=O)NCCC1CCN(Cc2ccccc2)CC1 [22-31] | < 10 |  |  | > 1000 |  | 10 to 100 | 100 to 1000 | 10 to 100 |
| C[C@@H]1CN(c2cc(F)c(F)c(F)c2)CCN1C(=O)NC[C@H](O)C1CCN(Cc2ccccc2)CC1 [3-16, (2R)-N-[(2R)-2-(1-benzylpiperidin-4-yl)-2-hydroxyethyl]-2-methyl-4-(3,4,5-trifluorophenyl)piperazine-1-carboxamide] | < 10 | > 1000 | > 1000 | > 1000 | > 1000 |  |  |  |
| C[C@@H]1CN(C(=O)NCCC2CCN(Cc3ccccc3)CC2)CCN1c1ccc(OC(F)(F)F)c(F)c1 [4-22, (3R)-N-[2-(1-benzylpiperidin-4-yl)ethyl]-4-[3-fluoro-4-(trifluoromethoxy)phenyl]-3-methylpiperazine-1-carboxamide] | < 10 | > 1000 | 100 to 1000 | > 1000 | 100 to 1000 |  |  |  |
| C[C@@H]1CN(c2ccc(F)c(F)c2)CCN1C(=O)NCCC1CCN(Cc2ccccc2)CC1 [4-15, (2R)-N-[2-(1-benzylpiperidin-4-yl)ethyl]-4-(3,4-difluorophenyl)-2-methylpiperazine-1-carboxamide] | < 10 | 100 to 1000 | > 1000 | > 1000 | 100 to 1000 |  |  |  |
| C[C@@H]1CN(c2ccc(C#N)cn2)C[C@H](C)N1C(=O)NCCC1CCN(Cc2ccccc2)CC1 [3-23, (2S,6R)-N-[2-(1-benzylpiperidin-4-yl)ethyl]-4-(5-cyanopyridin-2-yl)-2,6-dimethylpiperazine-1-carboxamide] | < 10 | > 1000 | > 1000 | > 1000 | 100 to 1000 |  |  |  |

More lines, main results first:

| Ki (human M4 receptor) [nM] | Ki (human M1 receptor; [1]) [nM] | Ki (human M5 receptor; [2]) [nM] | Ki (human M3 receptor) [nM] | Ki (human M2 receptor; [3]) [nM] | SMILES | Ki (human M1 receptor) [nM] | Ki (human M5 receptor) [nM] | Ki (human M2 receptor) [nM] |
| --- | --- | --- | --- | --- | --- | --- | --- | --- |
| < 10 | 100 to 1000 | > 1000 | > 1000 | 100 to 1000 | O=C(NCCC1CCN(Cc2ccccc2)CC1)c1ccc(-c2ccc(OC(F)(F)F)cc2)cc1 [9-7, N-[2-(1-benzylpiperidin-4-yl)ethyl]-4-[4-(trifluoromethoxy)phenyl]benzamide] |  |  |  |
| < 10 | > 1000 | > 1000 | > 1000 | 100 to 1000 | C[C@@H]1CN(c2ccc(OC(F)(F)F)c(C#N)c2)CCN1C(=O)NC[C@H](O)C1CCN(Cc2ccccc2)CC1 [7-10, (2R)-N-[(2R)-2-(1-benzylpiperidin-4-yl)-2-hydroxyethyl]-4-[3-cyano-4-(trifluoromethoxy)phenyl]-2-methylpiperazine-1-carboxamide] |  |  |  |
| < 10 | > 1000 | > 1000 | 100 to 1000 | 10 to 100 | C[C@@H]1CN(c2nccc(C(F)(F)F)n2)CCN1C(=O)NCCC1CCN(Cc2ccccc2)CC1 [5-8, (2R)-N-[2-(1-benzylpiperidin-4-yl)ethyl]-2-methyl-4-[4-(trifluoromethyl)pyrimidin-2-yl]piperazine-1-carboxamide] |  |  |  |
| < 10 | > 1000 | > 1000 | > 1000 | > 1000 | C[C@@H]1CN(c2cc(F)c(F)c(F)c2)CCN1C(=O)NCCC1(O)CCN(Cc2ccccc2)CC1 [7-1, (2R)-N-[2-(1-benzyl-4-hydroxypiperidin-4-yl)ethyl]-2-methyl-4-(3,4,5-trifluorophenyl)piperazine-1-carboxamide] |  |  |  |
| < 10 | 100 to 1000 | > 1000 | > 1000 | 100 to 1000 | O=C(NCCC1CCN(Cc2ccccc2)CC1CO)C1CCN(c2ccc(OC(F)(F)F)cc2)CC1 (centres unmarked) [9-62, N-{2-[1-benzyl-3-(hydroxymethyl)piperidin-4-yl]ethyl}-1-[4-(trifluoromethoxy)phenyl]piperidine-4-carboxamide] |  |  |  |
| < 10 | 100 to 1000 | > 1000 | > 1000 | 10 to 100 | O=C(NCCC1CCN(Cc2ccccc2)CC1)C1CCN(c2ccc3c(c2)OC(F)(F)O3)CC1 [10-5, N-[2-(1-benzylpiperidin-4-yl)ethyl]-1-(2,2-difluoro-2H-1,3-benzodioxol-5-yl)piperidine-4-carboxamide] |  |  |  |
| < 10 | 100 to 1000 | 100 to 1000 | 100 to 1000 | 10 to 100 | C[C@@H]1CN(c2ccc(OC(F)(F)F)cc2F)CCN1C(=O)NCCC1CCN(Cc2ccccc2)CC1 [10-12, (2R)-N-[2-(1-benzylpiperidin-4-yl)ethyl]-4-[2-fluoro-4-(trifluoromethoxy)phenyl]-2-methylpiperazine-1-carboxamide] |  |  |  |
| < 10 | > 1000 | > 1000 | > 1000 | 100 to 1000 | Nc1nc(N2CCN(C(=O)NCCC3CCN(Cc4ccccc4)CC3)CC2)ncc1C(F)(F)F [5-30, 4-[4-amino-5-(trifluoromethyl)pyrimidin-2-yl]-N-[2-(1-benzylpiperidin-4-yl)ethyl]piperazine-1-carboxamide] |  |  |  |
| < 10 | 100 to 1000 | > 1000 | > 1000 | 100 to 1000 | O=C(NCCC1(O)CCN(Cc2ccccc2)CC1)C1CCN(c2ccc(OC(F)(F)F)c(F)c2)CC1 [9-9, N-[2-(1-benzyl-4-hydroxypiperidin-4-yl)ethyl]-1-[3-fluoro-4-(trifluoromethoxy)phenyl]piperidine-4-carboxamide] |  |  |  |
| < 10 | 100 to 1000 | 100 to 1000 | 100 to 1000 | 10 to 100 | C[C@@H]1CN(c2cc(F)c(Cl)c(F)c2)CCN1C(=O)NCCC1CCN(Cc2ccccc2)CC1 [22-13] |  |  |  |
